Data published in patent US20040235931A1, “Inhibition of herpes virus replication” (priority 2003, published 2004).

Columns and labels:
HSV-1 [1] = assay: HSV-1 replication in MRC-5 cells, pfu determination; format: cell-based, herpes simplex virus type 1 (HSV-1); details: 375 μM I3C, pretreatment for 24 or 36 hours prior to infection
Procedure: MRC-5 cell cultures were infected with HSV-1 as described above in Example 1 except that the cells were treated with 375 μM of I3C following infection or for 12, 24, or 36 hours prior to infection. Cells were infected with HSV-1 at an moi of 1 for 1 hour. Following removal of the unabsorbed virus, the infected cells were incubated in media containing 0.2% DMSO (control cells) or in media containing 375 μM of I3C (test cells) At 24, 48, and 72 hours after infection, the number of pfu's present in the cells and medium of the cultures treated with I3C prior to or after infection was determined.

HSV-2 = HSV-2 replication in Vero cells, pfu determination; format: cell-based, herpes simplex virus type 2 (HSV-2); details: 267 μM I3C
Procedure: Vero cell cultures that had been pretreated with 267 μM of I3C were infected with HSV-2 at an moi of one for 1 hour At 24, 48, and 72 hours after infection, the number of pfu's present in the cells and medium of the I3C pre-treated cultures were determined. In addition, Vero cells were infected with HSV-2 at an moi of one for 1 hour, and thereafter the cultures were rinsed three time with media and incubated in medium containing 267 μM prepared in 0.2% dimethyl-sulfoxide (DMSO). At 24, 48, and 72 hours after infection, the number of pfu's present in the test cell pre-treated with I3C or treated with I3C post infection were determined.

[2] = test system: acyclovir resistant HSV-1; assay: Acyclovir-resistant HSV-1 replication in Vero cells, pfu determination; format: cell-based, herpes simplex virus type 1 (HSV-1)
Procedure: Vero cell cultures were infected with acyclovir resistant HSV-1 at an moi of one for one hour. Test cells were treated with 267 μM of I3C immediately after or 24 hours prior to infection. At 24, 48, and 72 hours after infection, the number of pfu's present in the test cell pre-treated with I3C or treated with I3C post infection were determined.

MRC-5 cells = assay: MTT toxicity assay in MRC-5 cells; format: cell-based, Human; details: MTT, 24, 48 and 72 hours
Procedure: (§1) African green monkey kidney cells (Vero) and Human neonatal lung fibroblasts cells (MRC-5) were obtained from the American Type Culture Collection, (Rockville, Md.). Vero cells were grown and maintained in Medium 199 supplemented with 5% fetal bovine serum, 0.075% NaHCO3 and 50 μg/ml gentamycin sulfates. MRC-5 cells were grown and maintained in Minimal Essential Medium with Earle's Balanced Salt Solution containing 2 mM L-glutamine supplemented with 10% fetal bovine serum, 0.lmM nonessential amino acids, 1 mM sodium pyruvate, 2% sodium bicarbonate and 50 μg/ml gentamycin sulfate.
(§2) Cells were exposed to drug treated media of varying concentrations. […] I3C concentrations used in these studies were 50% and 75% of the CD50. Cells were seeded onto a 96 well at 10,000 cells/well and grown for 24 hours. Twelve different serially diluted concentrations of I3C were then incubated with the cells for 24, 48 and 72 hours and colorimetric readings were taken at these time points using the MTT reagent. Controls included in the 96 well plate were, media alone that contained no cells but with I3C, media with cells but no I3C, and plain media with 0.2% DMSO and no cells or drug. At 24, 48 and 72 hours a sigmoidal curve was generated for each time period and the data analyzed. Approximately, 500 μM was the concentration at which 50 percent of the cells died (CD50).

HSV-1 [3] = assay: HSV-1 replication in Vero cells, plaque forming units (pfu) titration; format: cell-based, herpes simplex virus type 1 (HSV-1)
Procedure: Cultures of African green monkey kidney cells (Vero) cells, obtained from the American Type Culture Collection, Rockville, Md., were grown to confluence in Medium 199 supplemented with 5% fetal bovine serum, 0.075% NaHCO3, and 50 μg/ml gentamycin sulfate in 25 cm^2 tissue culture flasks. Cells were infected with HSV-1 at a multiplicity of infection (moi) of one and incubated at room temperature for one hour to allow for virus attachment to and penetration of the cell. Under these conditions, approximately half of the cells are infected with virus. Thereafter, the cultures were rinsed three time with media and incubated in medium containing 133 μM, 267 μM, or 400 μM I3C prepared in 0.2% dimethyl-sulfoxide (DMSO). Controls were treated identically, but were incubated without the I3C.
Upon addition of the medium to the cultures and at 24 hours time periods thereafter, i.e., 0 hours, 24 hours, 48 hours, and 72 hours after addition of the drug, cells and medium were frozen at −70° C. Samples were then thawed, sonicated and titrated on Vero cells to determine the number of plaque forming units (pfu's) of virus produced by each culture.
Vero cell cultures were infected with HSV-1 as described above in Example 1 except that the cells were treated with 267 μM of I3C for 6, 12, or 24 hours prior to infection. Cells were infected with HSV-1 at an moi of 1 for 1 hour. Following removal of the unabsorbed virus, the infected cells were incubated in media containing 0.2% DMSO (control cells) or in media containing 267 μM of I3C (test cells) At 24, 48, and 72 hours after infection, the number of pfu's present in the cells and medium of the I3C -treated cultures was determined.

Vero cells = assay: MTT toxicity assay in Vero cells; format: cell-based, African green monkey; details: MTT, 24, 48 and 72 hours
Procedure: as §1, §2

HSV = assay: Direct inactivation of HSV by incubation with I3C, plaque assay; details: HSV mixed with I3C solution (267 μM); 1, 10, 30 and 60 minutes; compared to control virus
Procedure: To determine if I3C could directly inactivate […] studies were done in which HSV was mixed with a solution of I3C (267 μM). Samples were taken at 1, 10, 30 and 60 minutes and the presence of infectious virus determined by the plaque assay.

OCc1c[nH]c2ccccc12 [I3C, indole-3-carbinol]
HSV-1 replication in MRC5 cells (HSV-1 [1]): inhibition of HSV-1 replication
HSV-2 replication, first 24 hours (HSV-2; Vero cells treated 24 hours pre-infection): proceeded at a reduced rate for 24 hours
HSV-2 replication, first 24 hours (HSV-2; Vero cells treated post infection): proceeded at a reduced rate for 24 hours
HSV-2 replication at 48 and 72 hours (HSV-2; post-treated Vero cells): decreased at 48 and 72 hours
HSV-2 replication at 48 and 72 hours (HSV-2; pre-treated Vero cells): decreased at 48 and 72 hours
replication of acyclovir-resistant HSV ([2]; 267 μM I3C post infection, Vero cells, 24, 48, 72 hours after infection): proceeded at a reduced rate for 24 hours and then rapidly decreased at 48 and 72 hours to undetectable levels
inhibition of acyclovir-resistant HSV 1 replication ([2]; 267 μM I3C, Vero cells incubated 24 hours prior to infection): dramatic and complete
CD50 (concentration at which 50 percent of the cells died) (MRC-5 cells): ~500 µM
inhibition of HSV replication (HSV-1 [3]; 267 μM I3C, Vero cells incubated 12 to 24 hours prior to infection): dramatic and complete
HSV replication (HSV-1 [3]; 267 μM I3C, Vero cells pre-incubated 6 hours prior to infection, 24, 48, 72 hours after infection): proceeded at a reduced rate for 24 hours and then rapidly decreased at 48 and 72 hours to undetectable levels
infectious HSV particles in cultures (HSV-1 [3]; 400 μM I3C continuously post infection, Vero cells, by 72 hours): virtually undetectable
inhibition of formation of infectious virus particles (HSV-1 [3]; 400 μM I3C post infection, Vero cells, moi 1, at 24 hours): more than 99%
dose dependence of inhibition of virus replication (HSV-1 [3]; 133, 267, 400 μM I3C post infection, Vero cells): dose dependent
CD50 (concentration at which 50 percent of the cells died) (Vero cells): ~500 µM
direct inactivation of HSV (HSV): no significant inactivation of HSV
